Consider 1 compound from patent publication US20140162285A1, “Methods of Modulating Vesicular Trafficking” (The General Hospital Corporation, priority 2009, published 2014).

The target in experiment [1] is T1, Sec7-domain of ARNO (Homo sapiens, UniProt Q99418).
T1 construct: iii) 61-252aa, Sec7 domain; GST (N, cleaved yes); made in house; host or cells: E. coli BL21(DE3)
T1 sequence (Q99418 61-252): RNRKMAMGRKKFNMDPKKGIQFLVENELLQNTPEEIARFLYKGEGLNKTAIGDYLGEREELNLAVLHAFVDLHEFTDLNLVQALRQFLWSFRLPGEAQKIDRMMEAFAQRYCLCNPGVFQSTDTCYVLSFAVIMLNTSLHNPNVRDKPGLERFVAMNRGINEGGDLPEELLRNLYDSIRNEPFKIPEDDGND
In words: a2N-derived peptide pull-down with GST-Sec7 domain. The following applies: GST-Sec7-6His. Format: binding. Here is the method:
FIGS. 5A-C are a set of three images of Western blots showing the identification of interaction motif of a2N that is involved in specific binding with the Sec7 domain of ARNO. 5A, The catalytic Sec7 domain of ARNO interacts with two a2N-derived peptides, a2N-01 and a2N-03, in pull-down experiments. The peptide pull-down assay was performed with six a2N-derived interaction peptides immobilized on streptavidin-beads and incubated with purified recombinant GST-only or GST-Sec7 domain. Interacting complexes were eluted and analyzed by Western blotting using monoclonal anti-GST antibodies as described below. The loading controls for GST-only (lane 1) or GST-Sec7 (lane 2) are shown. […] The peptide pull-down assay was performed with peptides a2N-01 and a2N-03 immobilized on streptavidin-beads and incubated with purified recombinant GST-PH domain (5B) or GST-PB domain (5C). Interacting complexes were eluted and analyzed by Western blotting using monoclonal anti-GST antibodies. […]
These a2N-derived peptides were immobilized by an N-terminal biotin-tag, which ensured the same efficiency and equivalent binding to streptavidin-agarose beads. […] After washing beads four times in ice-cold binding buffer, the interacting complexes were eluted by boiling in SDS-PAGE sample buffer for 10 min at 95° C., resolved by SDS-PAGE and analyzed by Western blotting using monoclonal anti-GST antibody.

Experiment [2] has as its target T1, Sec7-domain of ARNO. In words: surface plasmon resonance (BIAcore T100) kinetic analysis a2N-01 peptide/Sec7-domain. Format: binding. The conditions noted are these: ΔGbind=RTlnKD. The source says:
6A, Kinetic analysis and estimation of a dissociation constant (KD) for interaction between full-length a2N(wt) and ARNO(wt) proteins. Sensorgrams for the binding of recombinant a2N-6His immobilized as ligand on the sensor chip, with various concentrations of 6His-ARNO as analyte are shown as follows. The responses on the sensorgram are designated in resonance units (RU). […] 6B, Kinetic analysis and estimation of KD for interaction between a2N-01 peptide and Sec7-domain of ARNO. Sensorgrams for the binding of a2N-01 peptide immobilized as ligand on the sensor chip, with various concentrations of Sec7-domain as analyte are shown as follows. The responses on the sensorgram are designated in resonance units (RU).
All reagents, including buffers, sensor chips and the amine coupling kit, were obtained from GE Healthcare. […] Dissociation of the complexes was monitored for 10 min, and then the regeneration of the sensor surfaces was performed using 0.05% SDS with 1-min injection in the running buffer at a 20 μl/min flow rate. […] The dissociation constant (KD) was determined from the kon/koff values. To estimate affinity of interaction the corresponding free energy of binding ΔGbind=RTlnKD was calculated as previously described (Marles et al., Mol Cell 14 (2004) 813-823). […]
(In SPR one partner is held on a chip, and binding of the other changes the refractive index at the surface.)

Entries after “also recorded” stand apart in the source; their conditions may differ. Peptide text beside a SMILES is read from it. * marks the point of attachment. Biotin = O=C1N[C@H]2[C@H](CS[C@H]2CCCCC(=O)*)N1

Turning to `CSCC[C@H](NC(=O)CCCC[C@@H]1SC[C@@H]2NC(=O)N[C@@H]21)C(=O)NCC(=O)N[C@@H](CO)C(=O)N[C@@H](CC(C)C)C(=O)N[C@@H](Cc1ccccc1)C(=O)N[C@@H](CCCNC(=N)N)C(=O)N[C@@H](CO)C(=O)N[C@@H](CCC(=O)O)C(=O)N[C@@H](CO)C(=O)N[C@@H](CCSC)C(=O)N[C@@H](CS)C(=O)N[C@@H](CC(C)C)C(=O)N[C@@H](C)C(=O)N[C@@H](CCC(N)=O)C(=O)N[C@@H](CC(C)C)C(=O)N[C@@H](Cc1ccccc1)C(=O)N[C@@H](CC(C)C)C(=O)N[C@@H](CS)C(=O)O` [a2N-01, Bio-MGSLFRSE SMCLAQLFL-Cys] (Biotin-MGSLFRSESMCLAQLFLC-OH; N-terminus and C-terminus assumed), the “interaction with Sec7-domain of ARNO” value on Sec7-domain of ARNO [1] is given as “interact; also recorded: specifically interacts”. On Sec7-domain of ARNO [2], the “calculated free energy of binding” value was -8.81 kcal/mol.
